Legend:
[1] = test system: potatoes; test: Yield increase test of potatoes (field); assay type: in vivo, potato; details: amount 7000 g active ingredient/mu, base fertilizer
Procedure: (§1) (1) Yield increase and disease control test of potatoes with fungicidal fertilizer composition of the present invention. This test was conducted in 2017 in Anding District, Dingxi City, Gansu Province. This area is a typical semi-arid rain-fed agricultural area. The soil type is loessial soil, with deep soil layers and uniform soil fertility. The previous crop is rape. The fertilizer of the present invention was totally applied as a base fertilizer at a time. […] Ridging after flat planting in wide and narrow rows was adopted. The wide row spacing was 60 cm, the narrow row spacing was 30 cm, the plant spacing was 30 cm, the sowing depth was 15 cm, and the plant density was 58,000 plants·hm^−2. Other field management was the same as that in large area of field. The number of large- and medium-sized potatoes ([…]) per plant was randomly determined, and the relative increase rate of large- and medium-sized potatoes was determined. The yield per mu and the relative increase rate of yield were determined. The crude starch content and increase rate of crude starch content were determined. The control effect on root rot of potatoes was also determined.

[2] = test system: root rot of potatoes; test: Disease control test of potatoes (field), root rot; assay type: in vivo, potato; details: amount 7000 g active ingredient/mu
Procedure: as §1

[3] = test system: soybean; test: Yield increase test of soybean; assay type: in vivo; details: 4000 g effective ingredient per mu
Procedure: (§2) Fertilization method: The fertilizer was co-applied with other fertilizers. The yield, quality and control effect on disease on soybean were determined.

[4] = test system: root rot, a soil-borne disease of soybeans; test: Disease control test of soybean, root rot; assay type: in vivo; details: 4000 g effective ingredient per mu
Procedure: as §2

[5] = test system: Chinese wolfberry; test: Yield increase and quality test of Chinese wolfberry; assay type: in vivo, Chinese wolfberry "Ningqi No. 7"; details: 1.2 kg active ingredient per mu
Procedure: The test was carried out in a Chinese wolfberry planting test plot in Koluke Town, Delingha City, Qinghai Province. Chinese wolfberry plants were all three-year-old seedlings of variety “Ningqi No. 7” at a density of 270 plants/667 m^2. This experiment was designed such that different plots were arranged in order. […]. Fertilization method: It was applied together with other base fertilizers, by laying the fertilizer at the bottom of the planting pit, where the depth of the trench was 70 cm, the diameter of the pit was 80 cm, and the soil was mixed in and applied at the bottom when applying fertilizer. The yield, quality and control effect on disease on fresh Chinese wolfberry fruit were determined.

[6] = test system: Disease (black fruit); test: Disease control test of Chinese wolfberry, black fruit; assay type: in vivo, Chinese wolfberry "Ningqi No. 7"; details: 1.2 kg active ingredient per mu
Procedure: The test was carried out in a Chinese wolfberry planting test plot in Koluke Town, Delingha City, Qinghai Province. Chinese wolfberry plants were all three-year-old seedlings of variety “Ningqi No. 7” at a density of 270 plants/667 m^2. This experiment was designed such that different plots were arranged in order. […] Fertilization method: It was applied together with other base fertilizers, by laying the fertilizer at the bottom of the planting pit, where the depth of the trench was 70 cm, the diameter of the pit was 80 cm, and the soil was mixed in and applied at the bottom when applying fertilizer. The yield, quality and control effect on disease on fresh Chinese wolfberry fruit were determined.

[7] = test system: peanut; test: Yield increase and quality test of peanut; assay type: in vivo; details: 800 g per mu, sprayed three times during flowering and fruiting period
Procedure: (§3) […]. Fertilization method: The fertilizer was applied three times by spraying during the flowering and fruiting period. The yield, quality and control effect on disease on peanut were determined.

[8] = test system: stem rot of peanut; test: Disease control test of peanut, stem rot; assay type: in vivo; details: 800 g per mu
Procedure: as §3

[9] = test system: pepper; test: Yield increase and quality test of pepper; assay type: in vivo; details: 400 g per mu, sprayed during the seedling stage
Procedure: (§4) This fertilizer was applied on the basis of conventional fertilization in each treatment area. Fertilization method: The fertilizer was applied by spraying during the seedling stage of pepper. The yield, quality and control effect on disease on pepper were determined.

[10] = test system: Disease (blight); test: Disease control test of pepper, blight; assay type: in vivo; details: 400 g per mu
Procedure: as §4

[11] = test system: tomato; test: Yield increase and quality test of tomato; assay type: in vivo; details: 600 g per mu, sprayed during the seedling stage
Procedure: […]. This fertilizer was applied on the basis of conventional fertilization in each treatment area. Fertilization method: The fertilizer was applied by spraying during the seedling stage of tomato. The yield, quality and control effect on disease on tomato were determined.

[12] = test system: Disease (rot); test: Disease control test of tomato, rot; assay type: in vivo; details: 600 g per mu
Procedure: This fertilizer was applied on the basis of conventional fertilization in each treatment area. Fertilization method: The fertilizer was applied by spraying during the seedling stage of tomato. The yield, quality and control effect on disease on tomato were determined.

Q: Which results are given for Potassium phosphite?
A: Crude starch content [1]: 16.8%; Fresh weight of large- and medium-sized potatoes [1]: 518.8 g/plant; Increase rate of crude starch content [1]: 6.3%; Increase rate of large- and medium-sized potatoes [1]: 14.8%; Increase rate of yield [1]: 12.4%; Yield [1]: 1446 kg/mu; Control effect ([2]; 10 days after application): 57.59%; Disease index of root rot ([2]; 10 days after application): 11.56; Control effect ([2]; 30 days after application): 32.47%; Disease index of root rot ([2]; 30 days after application): 26.19; Branches [3]: 18.5 count; Increase rate (branches) [3]: 6.8%; Increase rate (weight per 100 grains) [3]: 7.1%; Increase rate (yield) [3]: 11.4%; Weight per 100 grains [3]: 26.50 g; Yield (667 M^2) ([3]; per 667 M^2): 196.7; Control effect ([4]; 12 days after application): 75.42%; Disease index of root rot ([4]; 12 days after application): 4.73; Control effect ([4]; 35 days after application): 36.78%; Disease index of root rot ([4]; 35 days after application): 19.93; Quality: Polysaccharide [5]: 8.63%; Quality: Total amino acid content [5]: 7.41%; Yield of fresh Chinese wolfberry fruit: Weight per 100 fruits [5]: 126.8 g; Yield of fresh Chinese wolfberry fruit: Yield [5]: 2703.5 kg/mu; Disease (black fruit): Control effect ([6]; 10 days after application): 66.51%; Disease (black fruit): Disease index ([6]; 10 days after application): 5.13; Disease (black fruit): Control effect ([6]; 30 days after application): 45.24%; Disease (black fruit): Disease index ([6]; 30 days after application): 15.67; Quality: Linoleic acid [7]: 44.61%; Quality: Protein [7]: 23.08%; Yield [7]: 335.7 kg/mu; Yield: Seed yield [7]: 70.3%; Yield: Weight per 100 fruits [7]: 122.3 g; Disease (Stem rot): Control effect ([8]; 10 days after application): 78.64%; Disease (Stem rot): Disease index ([8]; 10 days after application): 3.28; Disease (Stem rot): Control effect ([8]; 30 days after application): 39.36%; Disease (Stem rot): Disease index ([8]; 30 days after application): 9.31; Quality: Vitamin C [9]: 24.4 mg/100 g; Yield: Total yield [9]: 3462 kg/mu; Yield: Weight of single fruit [9]: 51.8 g; Disease (blight): Control effect ([10]; 10 days after application): 71.36%; Disease (blight): Disease index ([10]; 10 days after application): 3.00; Disease (blight): Control effect ([10]; 42 days after application): 31.52%; Disease (blight): Disease index ([10]; 42 days after application): 12.43; Quality: Amino acid [11]: 695.31 mg/100 kg; Quality: Vitamin C [11]: 15.69 mg/100 g; Yield: Total yield [11]: 3626 kg/mu; Yield: Weight of single fruit [11]: 22.6 g; Disease (rot): Control effect ([12]; 12 days after application): 62.42%; Disease (rot): Disease index ([12]; 12 days after application): 5.95; Disease (rot): Control effect ([12]; 45 days after application): 34.52%; Disease (rot): Disease index ([12]; 45 days after application): 16.16
